For one assay, the target named is T1, Human Calpain 1/NS1 (Homo sapiens, UniProt P07384).
T1 sequence (P07384 1-714): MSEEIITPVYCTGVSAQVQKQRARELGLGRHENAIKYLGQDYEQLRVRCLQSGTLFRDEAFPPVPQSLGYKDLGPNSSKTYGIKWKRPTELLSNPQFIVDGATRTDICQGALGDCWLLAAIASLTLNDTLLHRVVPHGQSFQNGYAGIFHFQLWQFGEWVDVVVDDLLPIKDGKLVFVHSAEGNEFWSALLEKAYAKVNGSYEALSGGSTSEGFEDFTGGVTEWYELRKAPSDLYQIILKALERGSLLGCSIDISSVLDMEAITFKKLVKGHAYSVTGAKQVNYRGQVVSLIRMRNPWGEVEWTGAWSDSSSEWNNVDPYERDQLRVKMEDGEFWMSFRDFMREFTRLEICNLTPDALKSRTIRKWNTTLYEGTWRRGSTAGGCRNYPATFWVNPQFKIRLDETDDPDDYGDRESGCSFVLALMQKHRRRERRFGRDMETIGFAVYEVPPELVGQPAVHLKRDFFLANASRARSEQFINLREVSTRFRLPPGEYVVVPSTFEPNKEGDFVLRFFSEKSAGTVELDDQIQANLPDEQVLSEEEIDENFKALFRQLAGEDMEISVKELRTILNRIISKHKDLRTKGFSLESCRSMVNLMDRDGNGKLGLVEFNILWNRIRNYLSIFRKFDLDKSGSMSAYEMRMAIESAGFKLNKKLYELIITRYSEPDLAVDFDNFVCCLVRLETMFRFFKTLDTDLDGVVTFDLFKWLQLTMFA
T1 sequence (P04632 1-268 partner): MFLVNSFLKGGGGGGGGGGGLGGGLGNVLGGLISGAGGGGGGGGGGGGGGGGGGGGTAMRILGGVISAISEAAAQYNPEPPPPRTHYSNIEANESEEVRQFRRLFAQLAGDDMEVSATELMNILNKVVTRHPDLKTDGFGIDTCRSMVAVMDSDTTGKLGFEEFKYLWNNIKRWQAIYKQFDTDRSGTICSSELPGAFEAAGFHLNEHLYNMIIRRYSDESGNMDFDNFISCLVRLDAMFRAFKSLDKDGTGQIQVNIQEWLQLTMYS
The assay can be described thus: Calpain inhibition continuous fluorescence (FRET) assay, Human Calpain 1/NS1. To be noted: read-out: Human Calpain 1/NS1 IC50. Format: biochemical. Summed up: (§1)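 Inhibitors were preincubated with calpain in 50 mM Tris pH 7.5, 100 mM NaCl, 1 mM DTT at 25C. Reactions were started with 5-FAM/QXL 520 FRET peptide substrate plus CaCl2 and read at 490/520 nm for 10 min. IC50s came from 4-parameter fits of slope rates (1-5 min).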

The target in the next assay is T2, Human Calpain 9/NS1 (Homo sapiens, UniProt O14815).
T2 sequence (O14815 1-690): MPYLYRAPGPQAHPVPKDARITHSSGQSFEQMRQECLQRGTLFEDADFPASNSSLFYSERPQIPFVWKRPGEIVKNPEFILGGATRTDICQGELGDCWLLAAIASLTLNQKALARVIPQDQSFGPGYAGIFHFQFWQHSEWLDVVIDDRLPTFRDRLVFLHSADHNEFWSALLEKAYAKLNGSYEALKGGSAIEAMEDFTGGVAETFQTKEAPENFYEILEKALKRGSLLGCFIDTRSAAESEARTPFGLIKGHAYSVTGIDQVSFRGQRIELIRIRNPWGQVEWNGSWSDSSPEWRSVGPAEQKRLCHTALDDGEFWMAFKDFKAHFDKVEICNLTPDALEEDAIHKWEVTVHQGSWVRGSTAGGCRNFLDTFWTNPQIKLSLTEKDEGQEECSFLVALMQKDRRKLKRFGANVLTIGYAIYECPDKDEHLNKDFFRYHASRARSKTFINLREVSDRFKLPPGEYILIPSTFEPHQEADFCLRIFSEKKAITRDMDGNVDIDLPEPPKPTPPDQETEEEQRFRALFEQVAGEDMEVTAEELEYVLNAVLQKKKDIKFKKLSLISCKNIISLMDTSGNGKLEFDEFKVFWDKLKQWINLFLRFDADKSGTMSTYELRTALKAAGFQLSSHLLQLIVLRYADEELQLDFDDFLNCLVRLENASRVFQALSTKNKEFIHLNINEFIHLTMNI
T2 sequence (P04632 1-268 partner): T1 sequence (P04632 1-268 partner)
As to the kind of experiment: Calpain inhibition continuous fluorescence (FRET) assay, Human Calpain 9/NS1. Format: biochemical. The conditions noted are these: read-out: Human Calpain 9/NS1 IC50. Summed up:
as §1

Assay [1] has as its system Calpain activity in SH-SY5Y cells (SBDP-150). The assay can be described thus: SH-SY5Y Spectrin western blot assay (SBDP-150 breakdown product, A23187-induced). Format: cell-based. To be noted: Homo sapiens, SH-SY5Y cells, read-out: SH-SY5Y Spectrin IC50.
Another assay addresses T3, Human Calpain 2/NS1 (Homo sapiens, UniProt P17655).
T3 sequence (P17655 1-700): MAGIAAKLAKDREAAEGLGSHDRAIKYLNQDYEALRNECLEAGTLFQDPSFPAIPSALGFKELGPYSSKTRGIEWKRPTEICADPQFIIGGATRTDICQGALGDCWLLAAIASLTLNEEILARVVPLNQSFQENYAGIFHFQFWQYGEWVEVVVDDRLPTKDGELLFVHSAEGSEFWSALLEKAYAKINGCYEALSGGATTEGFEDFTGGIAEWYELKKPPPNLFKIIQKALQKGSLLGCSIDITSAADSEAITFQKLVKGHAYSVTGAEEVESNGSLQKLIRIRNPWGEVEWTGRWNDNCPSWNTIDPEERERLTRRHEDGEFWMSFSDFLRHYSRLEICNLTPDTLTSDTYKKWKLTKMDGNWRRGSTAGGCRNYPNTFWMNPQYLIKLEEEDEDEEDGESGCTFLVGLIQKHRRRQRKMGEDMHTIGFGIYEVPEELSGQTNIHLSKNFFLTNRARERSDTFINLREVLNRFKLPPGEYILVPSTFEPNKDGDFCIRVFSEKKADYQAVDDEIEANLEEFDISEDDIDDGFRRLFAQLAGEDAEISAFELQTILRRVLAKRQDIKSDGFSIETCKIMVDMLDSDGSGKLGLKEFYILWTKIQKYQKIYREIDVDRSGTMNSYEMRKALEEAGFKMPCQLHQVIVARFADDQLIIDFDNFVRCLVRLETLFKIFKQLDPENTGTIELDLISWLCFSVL
T3 sequence (P04632 1-268 partner): T1 sequence (P04632 1-268 partner)
The assay can be described thus: Calpain inhibition continuous fluorescence (FRET) assay, Human Calpain 2/NS1. Format: biochemical. The conditions noted are these: read-out: Human Calpain 2/NS1 IC50. Summed up:
as §1

Assay [2] concerns Calpain activity in SH-SY5Y cells. As to the kind of experiment: SH-SY5Y + AMC fluorescence assay (Suc-LLVY-AMC substrate). Format: cell-based. The conditions noted are these: read-out: SH-SY5Y + AMC IC50.
Setting [3] is: A23187-induced SBDP-150, western blot.
[4] abbreviates: Column D, A23187-induced SBDP-150.

Molecules are shown by their SMILES. Like-named read-outs stand apart in the source and are kept apart here. Where only a bound is given, the exact number is not on record here.

As to `Cn1cc(C(=O)NC(Cc2ccccc2)C(=O)C(N)=O)c(Cn2ncc3cnccc32)n1` (stereo not drawn) [Compound 408, 3-((1H-pyrazolo[4,3-c]pyridin-1-yl)methyl)-N-(4-amino-3,4-dioxo-1-phenylbutan-2-yl)-1-methyl-1H-pyrazole-4-carboxamide], the IC50 at Human Calpain 1/NS1 is more than 10 µM; at Human Calpain 9/NS1, more than 10 µM; in assay [1] (setting [3]), 10 to 25 µM; on Human Calpain 2/NS1 it was 3 to 10 µM; in assay [2] it was less than 10 µM.

As for `Cc1noc(-c2ccccc2)c1C(=O)N[C@@H](Cc1ccc(F)cc1)C(=O)C(N)=O` [Compound 58], the IC50 on Human Calpain 1/NS1 (Column A) is less than 3 µM; on Human Calpain 9/NS1 (Column C), less than 3 µM; in assay [1] (setting [4]), 10 to 25 µM; at Human Calpain 2/NS1 (Column B), less than 3 µM; in assay [2] (Column E), more than 25 µM.

In the case of `Cc1ccc(F)cc1-c1nn(C(F)F)cc1C(=O)NC(Cc1ccccc1)C(=O)C(N)=O` (stereo not drawn) [Compound 566, N-(4-amino-3,4-dioxo-1-phenylbutan-2-yl)-1-(difluoromethyl)-3-(5-fluoro-2-methylphenyl)-1H-pyrazole-4-carboxamide], the IC50 on Human Calpain 1/NS1 is less than 3 µM; on Human Calpain 9/NS1, less than 3 µM; in assay [1] (setting [3]) it was 10 to 25 µM; at Human Calpain 2/NS1, less than 3 µM; in assay [2] it was less than 10 µM.

As for `Cc1ccc(-c2nn(C)cc2C(=O)N[C@@H](Cc2ccccc2)C(=O)C(N)=O)cc1` [Compound 166, (S)—N-(4-amino-3,4-dioxo-1-phenylbutan-2-yl)-1-methyl-3-(p-tolyl)-1H-pyrazole-4-carboxamide], the IC50 at Human Calpain 1/NS1 (Column A) is less than 3 µM; on Human Calpain 9/NS1 (Column C) it was less than 3 µM; in assay [1] (setting [4]) it was 10 to 25 µM; at Human Calpain 2/NS1 (Column B), less than 3 µM; in assay [2] (Column E) it was more than 25 µM.

For `Cc1cc(C)cc(-c2nn(C(F)F)cc2C(=O)NC(Cc2ccccc2)C(=O)C(N)=O)c1` (stereo not drawn) [Compound 565, N-(4-amino-3,4-dioxo-1-phenylbutan-2-yl)-1-(difluoromethyl)-3-(3,5-dimethylphenyl)-1H-pyrazole-4-carboxamide], the IC50 on Human Calpain 1/NS1 is less than 3 µM; at Human Calpain 9/NS1, less than 3 µM; in assay [1] (setting [3]) it was less than 10 µM; at Human Calpain 2/NS1, less than 3 µM; in assay [2] it was more than 25 µM.

With `CCOCc1cccc(-n2nc(C)cc2C(=O)N[C@@H](Cc2ccccc2)C(=O)C(N)=O)c1` [Compound 229, (S)—N-(4-amino-3,4-dioxo-1-phenylbutan-2-yl)-1-(3-(ethoxymethyl)phenyl)-3-methyl-1H-pyrazole-5-carboxamide], the IC50 is less than 3 µM at Human Calpain 1/NS1 (Column A); less than 3 µM on Human Calpain 9/NS1 (Column C); less than 10 µM in assay [1] (setting [4]); less than 3 µM at Human Calpain 2/NS1 (Column B); less than 10 µM in assay [2] (Column E).

On to `Cn1cc(C(=O)NC(Cc2ccccc2)C(=O)C(N)=O)c(N2CCN(C(=O)OCc3ccccc3)CC2)n1` (stereo not drawn) [Compound 601, Benzyl 4-(4-((4-amino-3,4-dioxo-1-phenylbutan-2-yl)carbamoyl)-1-methyl-1H-pyrazol-3-yl)piperazine-1-carboxylate], for which the IC50 was 3 to 10 µM on Human Calpain 1/NS1; 3 to 10 µM at Human Calpain 9/NS1; more than 25 µM in assay [1] (setting [3]); less than 3 µM at Human Calpain 2/NS1; more than 25 µM in assay [2].

With `Cc1cc(C(=O)N[C@@H](Cc2ccccc2)C(=O)C(N)=O)n(-c2ccc(-c3ccccc3C)cc2)n1` [Compound 202, (S)—N-(4-amino-3,4-dioxo-1-phenylbutan-2-yl)-3-methyl-1-(2′-methyl-[1,1′-biphenyl]-4-yl)-1H-pyrazole-5-carboxamide], the IC50 was less than 3 µM at Human Calpain 1/NS1 (Column A); less than 3 µM at Human Calpain 9/NS1 (Column C); 10 to 25 µM in assay [1] (setting [4]); less than 3 µM on Human Calpain 2/NS1 (Column B); more than 25 µM in assay [2] (Column E).

On to `Cn1cc(C(=O)NC(Cc2ccccc2)C(=O)C(=O)NC2CC2)c(-c2ccccc2)n1` (stereo not drawn) [Compound 458, N-(4-(cyclopropylamino)-3,4-dioxo-1-phenylbutan-2-yl)-1-methyl-3-phenyl-1H-pyrazole-4-carboxamide], for which the IC50 at Human Calpain 1/NS1 was less than 3 µM; at Human Calpain 9/NS1, less than 3 µM; in assay [1] (setting [3]), 10 to 25 µM; at Human Calpain 2/NS1, less than 3 µM; in assay [2], less than 10 µM.

As to `COc1ccc(C[C@H](NC(=O)c2oc(C)nc2-c2ccccc2)C(=O)C(N)=O)cc1` [Compound 385, (S)—N-(4-amino-1-(4-methoxyphenyl)-3,4-dioxobutan-2-yl)-2-methyl-4-phenyloxazole-5-carboxamide], the IC50 was less than 3 µM on Human Calpain 1/NS1; less than 3 µM on Human Calpain 9/NS1; less than 10 µM in assay [1] (setting [3]); less than 3 µM at Human Calpain 2/NS1; more than 25 µM in assay [2].

Consider `COc1cccc(-c2nn(C(F)F)cc2C(=O)NC(Cc2ccccc2)C(=O)C(N)=O)c1` (stereo not drawn) [Compound 384, N-(4-amino-3,4-dioxo-1-phenylbutan-2-yl)-1-(difluoromethyl)-3-(3-methoxyphenyl)-1H-pyrazole-4-carboxamide], for which the IC50 is less than 3 µM on Human Calpain 1/NS1; less than 3 µM on Human Calpain 9/NS1; less than 10 µM in assay [1] (setting [3]); less than 3 µM on Human Calpain 2/NS1; less than 10 µM in assay [2].

Consider `C#CCOCc1ccc(-c2nsnc2C(=O)N[C@@H](Cc2ccccc2)C(=O)CF)cc1` [Compound 362, (S)—N-(4-fluoro-3-oxo-1-phenylbutan-2-yl)-4-(4-((prop-2-yn-1-yloxy)methyl)phenyl)-1,2,5-thiadiazole-3-carboxamide], for which the IC50 was less than 3 µM at Human Calpain 1/NS1; less than 3 µM at Human Calpain 9/NS1; less than 10 µM in assay [1] (setting [3]); less than 3 µM on Human Calpain 2/NS1; more than 25 µM in assay [2].
